Counter-ions that a name gives are not always drawn. Like-named read-outs stand apart in the source and are kept apart here.

For experiment [1], the target named is T1, human NTCP (Homo sapiens, UniProt Q14973).
T1 sequence (Q14973 1-349): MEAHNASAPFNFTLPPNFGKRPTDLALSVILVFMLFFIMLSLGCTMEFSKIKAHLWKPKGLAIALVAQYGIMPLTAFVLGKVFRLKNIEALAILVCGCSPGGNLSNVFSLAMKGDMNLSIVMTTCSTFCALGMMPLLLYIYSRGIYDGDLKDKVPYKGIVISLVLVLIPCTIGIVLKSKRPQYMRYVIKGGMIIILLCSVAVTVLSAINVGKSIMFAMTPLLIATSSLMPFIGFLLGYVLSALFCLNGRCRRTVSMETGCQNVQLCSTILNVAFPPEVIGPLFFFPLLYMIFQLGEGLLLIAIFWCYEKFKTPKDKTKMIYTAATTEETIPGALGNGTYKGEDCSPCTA
The experiment can be described thus: Screening fluorescent competitive Myrcludex B-FITC binding assay (96-well, 10 µM drug).

In experiment [2] the target is T1, human NTCP. The experiment can be described thus: Screening taurocholate uptake assay (96-well, [14C]taurocholate, 10 µM drug).
Where [3] appears, read: screen, 10 µM drug, Myrcludex B-FITC binding.
Where [4] appears, read: combined ranking from functional and binding screening assays.
The mark [5] stands for this setting: screen, 10 µM drug, taurocholate uptake.
The mark [6] stands for this setting: Prestwick library screen, Myrcludex B-FITC binding, 10 µM drug.
The mark [7] stands for this setting: Prestwick library screen, taurocholate uptake, 10 µM drug.
Setting [8] is: ranking score beside the functional and binding assay B-scores of the screen.
[9] abbreviates: Prestwick library screen, 10 µM drug, B-score of Myrcludex B-FITC binding.
[10] abbreviates: Prestwick library screen, 10 µM drug, B-score of taurocholate uptake.
The mark [11] stands for this setting: combined ranking from functional and binding assay B-scores.

As to `C[N+](C)(C)CCCCCCCCCC[N+](C)(C)C` [Decamethonium bromide], in experiment [1] (setting [3]), the B-score binding assay is 0.021. For the same compound, in experiment [2] (setting [4]), the Ranking score is on record as 433.577. In experiment [2] (setting [5]), the B-score functional assay is -0.848.

`CN1CCN(C2=Nc3ccccc3Oc3ccc(Cl)cc32)CC1` [Loxapine succinate]: the B-score binding assay in experiment [1] (setting [3]) is 0.552. The Ranking score in experiment [2] (setting [4]) is on record as 424.073. In experiment [2] (setting [5]), this compound returned a B-score functional assay of -1.397.

On to `CCCN(CCC)CCc1cccc2c1CC(=O)N2` [Ropinirole HCl], for which the B-score binding assay in experiment [1] (setting [6]) was 2.082. The B-score functional assay in experiment [2] (setting [7]) is given as -0.072. In addition, the Ranking score in experiment [2] (setting [8]) is on record as 825.121.

In experiment [1] (setting [6]), `CC1NC(=O)NC1=O` (stereo not drawn) [Methylhydantoin-5-(L)] returned a B-score binding assay of -0.07. In addition, the B-score functional assay in experiment [2] (setting [7]) was 0.737. Further, in experiment [2] (setting [8]), the Ranking score amounted to 746.749.

The compound `CCOC(=O)[C@H](CCc1ccccc1)N[C@@H](C)C(=O)N1Cc2ccccc2C[C@H]1C(=O)O` [Quinapril HCl] yielded a B-score binding assay in experiment [1] (setting [9]) of 0.741. The B-score functional assay in experiment [2] (setting [10]) was found to be 2.971. In experiment [2] (setting [11]), the Ranking score was found to be 1103.9.

In experiment [1] (setting [3]), `CCC(Cc1c(I)cc(I)c(N)c1I)C(=O)O` (stereo not drawn) [Iopanoic acid] returned a B-score binding assay of 1.953. Besides, the Ranking score in experiment [2] (setting [4]) was found to be 395.161. The compound also displayed a B-score functional assay in experiment [2] (setting [5]) of -1.985.

For `CC(C)(Sc1cc(C(C)(C)C)c(O)c(C(C)(C)C)c1)Sc1cc(C(C)(C)C)c(O)c(C(C)(C)C)c1` [Probucol], the B-score binding assay in experiment [1] (setting [9]) is listed as 3.305. The compound further had a B-score functional assay in experiment [2] (setting [10]) of 0.089. For the same compound, the Ranking score in experiment [2] (setting [11]) was 969.367.

For `CN1CCCCC1CCN1c2ccccc2Sc2ccc([S+](C)[O-])cc21` (stereo not drawn) [Mesoridazine besylate], the B-score binding assay in experiment [1] (setting [9]) came out at 0.002. The same compound registered a B-score functional assay in experiment [2] (setting [10]) of 2.438. Besides, the Ranking score in experiment [2] (setting [11]) stood at 892.285.

Take `CC1CC(OC(=O)C(O)c2ccccc2)CC(C)(C)N1C` (stereo not drawn) [Eucatropine hydrochloride]: in experiment [1] (setting [9]), the B-score binding assay is 1.847. For the same compound, in experiment [2] (setting [10]), the B-score functional assay turned out to be 0.117. Further, in experiment [2] (setting [11]), the Ranking score is 950.91.

In experiment [1] (setting [3]), `O=c1[nH]cc(F)c(=O)[nH]1` [5-fluorouracil] gave a B-score binding assay of -1.388. The Ranking score in experiment [2] (setting [4]) stood at 327.242. In experiment [2] (setting [5]), the B-score functional assay is -0.016.

For the compound `Nc1ccn([C@@H]2O[C@H](CO)[C@@H](O)C2(F)F)c(=O)n1` [Gemcitabine], in experiment [1] (setting [6]), the B-score binding assay was 0.165. This compound also had a B-score functional assay in experiment [2] (setting [7]) of 0.015. In addition, the Ranking score in experiment [2] (setting [8]) is 717.496.

As to `COC(=O)[C@H]1[C@H]2C[C@@H]3c4[nH]c5cc(OC)ccc5c4CCN3C[C@H]2C[C@@H](OC(=O)c2cc(OC)c(OC)c(OC)c2)[C@@H]1OC` [Reserpine], the B-score binding assay in experiment [1] (setting [6]) is listed as 0.147. For the same compound, the B-score functional assay in experiment [2] (setting [7]) came to 0.519. Also, the Ranking score in experiment [2] (setting [8]) is reported as 842.122.

With `c1ccc([C@H]2CN3CCSC3=N2)cc1` [Levamisole hydrochloride], the B-score binding assay in experiment [1] (setting [9]) amounted to 1.834. In experiment [2] (setting [10]), the B-score functional assay was determined as 0.335. Moreover, the Ranking score in experiment [2] (setting [11]) amounted to 1002.84.

`COC(=O)N/N=C/c1c[n+]([O-])c2ccccc2[n+]1[O-]` [Carbadox]: the B-score binding assay in experiment [1] (setting [9]) is listed as 0.674. The compound further displayed a B-score functional assay in experiment [2] (setting [10]) of 0.663. The Ranking score in experiment [2] (setting [11]) stood at 963.5.

As to `NS(=O)(=O)c1cc2c(cc1Cl)NC(CC1CCCC1)NS2(=O)=O` (stereo not drawn) [Cyclopenthiazide], the B-score binding assay in experiment [1] (setting [6]) is recorded as 2.395. Also, the B-score functional assay in experiment [2] (setting [7]) is recorded as -0.118. The compound further displayed a Ranking score in experiment [2] (setting [8]) of 797.145.

In the case of `CC[N+]1(C)CCCC(OC(=O)C(O)(c2ccccc2)c2ccccc2)C1` (stereo not drawn) [Pipenzolate bromide], the B-score binding assay in experiment [1] (setting [9]) is on record as 0.291. The compound further displayed a B-score functional assay in experiment [2] (setting [10]) of 2.623. Moreover, the Ranking score in experiment [2] (setting [11]) was 1014.24.

As for `CCN1C(=O)NC(c2ccccc2)C1=O` (stereo not drawn) [Ethotoin], the B-score binding assay in experiment [1] (setting [9]) amounted to 0.936. The B-score functional assay in experiment [2] (setting [10]) turned out to be 3.216. In experiment [2] (setting [11]), the Ranking score came out at 1133.18.

In turn, `Nc1ccc(S(=O)(=O)Nc2nccs2)cc1` [Sulfathiazole] displayed a B-score binding assay in experiment [1] (setting [3]) of 0.039. Also, the Ranking score in experiment [2] (setting [4]) came to 386.996. Further, the B-score functional assay in experiment [2] (setting [5]) is -1.223.

In experiment [1] (setting [9]), `Cn1cnc([N+](=O)[O-])c1Sc1ncnc2nc[nH]c12` [Azathioprine] returned a B-score binding assay of 1.035. For the same compound, the B-score functional assay in experiment [2] (setting [10]) worked out at 1.292. In addition, in experiment [2] (setting [11]), the Ranking score came out at 1083.5.

In experiment [1] (setting [3]), `Nc1ccc(S(N)(=O)=O)cc1` [Sulfanilamide] came in with a B-score binding assay of -1.742. Also, the Ranking score in experiment [2] (setting [4]) stood at 381.13. Moreover, the B-score functional assay in experiment [2] (setting [5]) is 1.042.

`COc1ncnc(NS(=O)(=O)c2ccc(N)cc2)c1OC` [Sulfadoxine] came in with a B-score binding assay in experiment [1] (setting [9]) of 0.336. For the same compound, the B-score functional assay in experiment [2] (setting [10]) worked out at 0.522. Moreover, in experiment [2] (setting [11]), the Ranking score was determined as 887.31.

In turn, `CN1C(=O)OC(C)(C)C1=O` [Trimethadione] showed a B-score binding assay in experiment [1] (setting [9]) of 0.001. Moreover, the B-score functional assay in experiment [2] (setting [10]) turned out to be 1.466. Besides, the Ranking score in experiment [2] (setting [11]) turned out to be 860.791.

On to `Cc1ccc(-c2ncc(Cl)cc2-c2ccc(S(C)(=O)=O)cc2)cn1` [Etoricoxib], for which the B-score binding assay in experiment [1] (setting [3]) is -0.254. The Ranking score in experiment [2] (setting [4]) was 393.756. For the same compound, the B-score functional assay in experiment [2] (setting [5]) is -0.663.

As for `O=C(O)CCc1nc(-c2ccccc2)c(-c2ccccc2)o1` [Oxaprozin], the B-score binding assay in experiment [1] (setting [3]) is -0.29. The Ranking score in experiment [2] (setting [4]) is listed as 341.015. In experiment [2] (setting [5]), the B-score functional assay was -0.957.

In turn, `CC(C)(N)Cc1ccccc1.Cl` [Phentermine hydrochloride] displayed a B-score binding assay in experiment [1] (setting [9]) of 0.892. The compound further displayed a B-score functional assay in experiment [2] (setting [10]) of 2.461. For the same compound, the Ranking score in experiment [2] (setting [11]) is on record as 1114.52.

As to `CN(C)CCc1c[nH]c2ccc(Cn3cncn3)cc12` [Rizatriptan benzoate], the B-score binding assay in experiment [1] (setting [6]) is 3.436. Further, in experiment [2] (setting [7]), the B-score functional assay is given as -0.205. Further, in experiment [2] (setting [8]), the Ranking score came to 781.971.

In the case of `C[C@]12CCC(=O)C=C1C=C[C@@H]1[C@@H]2CC[C@@]2(C)[C@H]1CC[C@@]2(O)CCC(=O)[O-].[K+]` [Canrenoic acid potassium salt], the B-score binding assay in experiment [1] (setting [6]) is on record as 0.007. Moreover, the B-score functional assay in experiment [2] (setting [7]) amounted to 0.356. The compound also gave a Ranking score in experiment [2] (setting [8]) of 751.562.

`CC(=O)[C@H]1CC[C@H]2[C@@H]3CC=C4C[C@@H](O)CC[C@]4(C)[C@H]3CC[C@]12C` [Pregnenolone] yielded a B-score binding assay in experiment [1] (setting [3]) of 0.35. Besides, the Ranking score in experiment [2] (setting [4]) came to 297.104. The B-score functional assay in experiment [2] (setting [5]) is reported as -2.394.

In experiment [1], `O=C(NCC(O)CO)c1c(I)c(C(=O)NCC(O)CO)c(I)c(N(CCO)C(=O)CO)c1I` (stereo not drawn) [Ioversol] registered a B-score binding assay of 0.541. In experiment [2], this compound returned a B-score functional assay of 1.843 and a Ranking score of 1044.38.

`COC(=O)Nc1nc2ccc([S+]([O-])c3ccccc3)cc2[nH]1` (stereo not drawn) [Oxfendazol] came in with a B-score binding assay in experiment [1] (setting [9]) of 1.363. Besides, in experiment [2] (setting [10]), the B-score functional assay is recorded as 0.699. Also, the Ranking score in experiment [2] (setting [11]) came out at 1042.44.

In experiment [1] (setting [3]), `COc1ccccc1OCCNCC(O)COc1cccc2[nH]c3ccccc3c12` (stereo not drawn) [Carvedilol] returned a B-score binding assay of -0.836. Also, the Ranking score in experiment [2] (setting [4]) was determined as 348.775. Also, in experiment [2] (setting [5]), the B-score functional assay is on record as -0.341.

Source of the values: publication PMC5681660, “Reduced hepatitis B and D viral entry using clinically applied drugs as novel inhibitors of the bile acid transporter NTCP” (Scientific Reports, 2017).
